Where a name gives a salt, the structure may show the parent alone.
How the values were obtained:
[1] = in vivo, metabolite; cited from earlier work
[2] = system: agitation in patients with Alzheimer's Dementia (AD); assay: Clinical trial of oral fasudil in reducing agitation in patients with Alzheimer's Dementia (CMAI score); assay type: in vivo, human
Experimental: All the patients were treated for 6 weeks with 90 mg per day (30 mg TID) and a subset of patients was treated an additional 6 weeks with 180 mg per day (60 mg TID). […] A variety of assessments were conducted at baseline and at the end of treatment, including the NPI-Q and the CMAI.
Two baseline thresholds were set, and two analyses were done based on the two groupings that resulted. One threshold was based on the agitation/aggression domain of the NPI-Q and the other based on the CMAI score.
The first selection was based on NPI-Q score of ≥4.
The second selection required a baseline CMAI score of ≥20 and this yielded a 13-patient subgroup, having a mean baseline CMAI score of 34.4. […] All the patients selected using the NPI-Q agitation/aggression domain score of ≥4 were also included in this subgroup.
The analysis looked at the CMAI score prior to treatment and compared it to the last day of treatment (6 weeks for the 10 patients on the low dose and 12 weeks for the 3 patients on the high dose).

mice = conditions: six-month old mice, 10 mg/kg oral gavage once a day for 30 days; reduction indicates anxiety; cited from earlier work

## O=S(=O)(c1cccc2c(O)nccc12)N1CCCNCC1 [M3]
[1]
  half-life: about 8 hours

## O=S(=O)(c1cccc2cnccc12)N1CCCNCC1 [fasudil]
[2]; six patients with baseline NPI-Q score >=4, 90 mg per day (30 mg TID) for 6 weeks
  difference in mean CMAI score, baseline vs end of treatment: 22.3
[2]; six patients with baseline NPI-Q score >=4, 90 mg per day (30 mg TID) for 6 weeks, mean baseline CMAI 45.3
  mean CMAI score at the end of treatment: 23.0
[2]; thirteen patients with baseline CMAI score >=20, 6 weeks at 90 mg per day (10 patients) or additional 6 weeks at 180 mg per day (3 patients)
  difference in mean CMAI score, prior to treatment vs end of treatment: 12.6
[2]; thirteen patients with baseline CMAI score >=20, 6 weeks at 90 mg per day (10 patients) or additional 6 weeks at 180 mg per day (3 patients), mean baseline CMAI 34.4
  mean CMAI score at the end of treatment: 21.8
mice
  amount of time spent in the open arms of the maze: significantly reduced

## O=S(=O)(c1cccc2cnccc12)N1CCCNCC1 [fasudil HCl hemihydrate, Hexahydro-1-(5-isoquinolinesulfonyl)-1H-1,4-diazepine monohydrochloride hemihydrate]
[2]; nineteen AD patients, 90 mg per day (30 mg TID) 6 weeks and 180 mg per day (60 mg TID) additional 6 weeks
  tolerability of treatment regimens: well tolerated
